This test deals with Hepatocyte spheroids. Nature of the test: This assay model using primary human hepatocyte (PHH) spheroids, which are cultured in Williams E medium. After spheroid formation, cells are exposed to compounds in an FBS-free culture medium. […] Imaging is performed on an Opera Phenix High-Content Screening System, allowing quantification of proliferation as a readout for evaluating the effects of chemical probes on hepatocyte regeneration. Type of test: functional. Particulars: read-out: Cell Viability; for viability at 0.1 µM: Concentration 0.1 uM; for viability at 1 µM: Concentration 1 uM; for viability at 10 µM: Concentration 10 uM.

The term viability denotes a read-out of living cells in per cent, often relative to untreated cells. In the case of `O=S(=O)(NC1CCC(c2cc(F)ccc2F)(S(=O)(=O)c2ccc(Cl)cc2)CC1)C(F)(F)F` (stereo not drawn) [MRK-560], the viability at 0.1 µM is reported as 101% (non-toxic) and the viability at 1 µM is listed as 76.1% (non-toxic).
`C[C@@H](c1cccc(CN)c1)n1cc(Cl)cc(C(N)=O)c1=N`: the viability at 1 µM is on record as 104% (non-toxic) and the viability at 10 µM is on record as 111% (non-toxic).
On the same counts, the results for `O=C(O)c1cc(-c2ccc(C3CCNCC3)cc2)c2ccc(-c3ccc(C(F)(F)F)cc3)cc2c1` are 91.3% (non-toxic) and 1.07% (toxic).
`Cc1ccccc1Oc1cc(-n2c(=O)cc(C(F)(F)F)[nH]c2=O)c2ccccc2c1Cl` [BAY-069]: the viability at 1 µM is reported as 82.5% (non-toxic) and the viability at 10 µM is given as 62.5% (toxic).
As to `COc1ccc2c(c1)O[C@@H](c1ccc(OC)c(OC)c1)C[C@H]2NC(=O)C1(c2ccc3c(c2)OC(F)(F)O3)CC1` [A-1596586], the viability at 1 µM was 104% (non-toxic) and the viability at 10 µM is 88.5% (non-toxic).
The matching figures for `CO[C@@H](C)c1c(Nc2ccc([C@H](N(C)C(=O)C3CCS(=O)(=O)CC3)C(F)(F)F)cc2)cnc2cc(Cl)nn12` [NVS-MALT1]: 99.7% (non-toxic) and 33.9% (toxic).
As to `COc1ccc2cc(OCC3(C(=O)O)CN(C(=O)c4ccc(F)cc4)C3)ccc2c1` [PF-04418948], the viability at 0.1 µM is given as 157% (non-toxic) and the viability at 1 µM is listed as 153% (toxic).
With `CC(=O)Nc1c(C(C)=O)c(=O)n(C)c2nc(-c3ccc(Cl)cc3Cl)c(-c3ccc(Cl)cc3)cc12` [NAPHTHYRIDINONE], the viability at 1 µM is 117% (non-toxic) and the viability at 10 µM was 121% (non-toxic).
For the molecule `Cc1cc(Nc2nccc(C)n2)cc(-c2cnc([C@@]3(O)CC[C@H](C(=O)O)C(C)(C)C3)s2)c1` [MRL-SYKi], the viability at 0.1 µM is 98.8% (non-toxic) and the viability at 1 µM is given as 95.5% (non-toxic).
On to `O=C1c2ccc(Nc3ccc(F)cc3F)cc2CCc2ccc(OC[C@H](O)CO)cc21` [Skepinone-L], for which the viability at 1 µM is 94.6% (non-toxic) and the viability at 10 µM was 16.2% (toxic).
Consider `CCC(=O)N[C@H]1CC[C@@H](C(=O)N(C)c2ccc(-c3nc4ccccc4o3)cc2)C1` [BI 99179], for which the viability at 1 µM is given as 81.6% (non-toxic) and the viability at 10 µM was 55.6% (toxic).
Regarding `CC(=O)C1=C(C)N(c2cccc(C(F)(F)F)c2)C(=O)N[C@@H]1c1ccc(C#N)nc1` [BAY-678], the viability at 1 µM is 139% (non-toxic) and the viability at 10 µM is 132% (non-toxic).
On the same counts, the results for `COCCc1ccc(-c2c(C)nc3c(N4CCOCC4)ccnn23)cn1` [JNJ-42396302] are 158% (non-toxic) and 160% (non-toxic).
As to `CCOc1ccc(S(=O)(=O)Nc2ccc(Cl)cc2C#Cc2cnc(C(=O)O)cc2OC)c2ncccc12`, the viability at 1 µM is 91.1% (non-toxic) and the viability at 10 µM is on record as 17.2% (toxic).

Values taken from ChEMBL document CHEMBL5608109, “Hepatotoxicity screening of Donated Chemical Probes” (2024).
